How the values were obtained:
Assay in all cases: Test C preemergence
Assay type in all cases: in vivo
[1] = test system: Galium (catchweed bedstraw, Galium aparine); conditions: for Plant response rating, Galium: scale 0 to 100, 0 no effect, 100 complete control
How it was run: (§1)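 Preemergence: sow in loam-sand soil and treat. Postemergence: grow in peat-moss/vermiculite medium to 2–18 cm (1–4 leaves) and spray. Compound in non-phytotoxic solvent with surfactant; keep in greenhouse 13–15 d; score visually against controls, 0 (none) to 100 (full control).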

[2] = test system: barnyardgrass (Echinochloa crus-galli); conditions: for Plant response rating, Barnyardgrass: scale 0 to 100, 0 no effect, 100 complete control
How it was run: as §1

[3] = test system: blackgrass (Alopecurus myosuroides); conditions: for Plant response rating, Blackgrass: scale 0 to 100, 0 no effect, 100 complete control
How it was run: as §1

corn (Zea mays) = conditions: for Plant response rating, Corn: scale 0 to 100, 0 no effect, 100 complete control
How it was run: as §1

[4] = test system: crabgrass, large (large crabgrass, Digitaria sanguinalis); conditions: for Plant response rating, Crabgrass, Large: scale 0 to 100, 0 no effect, 100 complete control
How it was run: as §1

[5] = test system: foxtail, giant (giant foxtail, Setaria faberii); conditions: for Plant response rating, Foxtail, Giant: scale 0 to 100, 0 no effect, 100 complete control
How it was run: as §1

[6] = test system: johnsongrass (Sorghum halepense); conditions: for Plant response rating, Johnsongrass: scale 0 to 100, 0 no effect, 100 complete control
How it was run: as §1

[7] = test system: lambsquarters (Chenopodium album); conditions: for Plant response rating, Lambsquarters: scale 0 to 100, 0 no effect, 100 complete control
How it was run: as §1

[8] = test system: morningglory (Ipomoea coccinea); conditions: for Plant response rating, Morningglory: scale 0 to 100, 0 no effect, 100 complete control
How it was run: as §1

[9] = test system: nutsedge, yellow (yellow nutsedge, Cyperus esculentus); conditions: for Plant response rating, Nutsedge, Yellow: scale 0 to 100, 0 no effect, 100 complete control
How it was run: as §1

[10] = test system: oilseed rape (Brassica napus); conditions: for Plant response rating, Oilseed Rape: scale 0 to 100, 0 no effect, 100 complete control
How it was run: as §1

[11] = test system: pigweed (Amaranthus retroflexus); conditions: for Plant response rating, Pigweed: scale 0 to 100, 0 no effect, 100 complete control
How it was run: as §1

[12] = test system: ragweed (common ragweed, Ambrosia elatior); conditions: for Plant response rating, Ragweed: scale 0 to 100, 0 no effect, 100 complete control
How it was run: as §1

[13] = test system: ryegrass, Italian (Italian ryegrass, Lolium multiflorum); conditions: for Plant response rating, Ryegrass, Italian: scale 0 to 100, 0 no effect, 100 complete control
How it was run: as §1

soybean (Glycine max) = conditions: for Plant response rating, Soybean: scale 0 to 100, 0 no effect, 100 complete control
How it was run: as §1

[14] = test system: velvetleaf (Abutilon theophrasti); conditions: for Plant response rating, Velvetleaf: scale 0 to 100, 0 no effect, 100 complete control
How it was run: as §1

[15] = test system: waterhemp (common waterhemp, Amaranthus rudis); conditions: for Plant response rating, Waterhemp: scale 0 to 100, 0 no effect, 100 complete control
How it was run: as §1

[16] = test system: wheat (winter wheat, Triticum aestivum); conditions: for Plant response rating, Wheat: scale 0 to 100, 0 no effect, 100 complete control
How it was run: as §1

[17] = 31 g ai/ha, 0 is no effect, 100 is complete control

CN1CC(c2ccc(F)c(F)c2)C(C(=O)Nc2ccccc2S(C)(=O)=O)C1=O (stereo not drawn) [Compound 640]
25: Plant response rating (scale of 0 to 100), Lambsquarters [7, 17]
10: Plant response rating, Velvetleaf ([14]; 125 g ai/ha)
60: Plant response rating, Wheat ([16]; 250 g ai/ha)
80: Plant response rating, Galium ([1]; 62 g ai/ha) | Plant response rating (scale of 0 to 100), Barnyardgrass [2, 17] | Plant response rating, Oilseed Rape ([10]; 250 g ai/ha) | Plant response rating, Pigweed ([11]; 250 g ai/ha)
45: Plant response rating, Wheat ([16]; 125 g ai/ha)
95: Plant response rating, Barnyardgrass ([2]; 250 g ai/ha) | Plant response rating (scale of 0 to 100), Crabgrass, Large [4, 17] | Plant response rating, Foxtail, Giant ([5]; 62 g ai/ha) | Plant response rating, Foxtail, Giant ([5]; 125 g ai/ha) | Plant response rating, Foxtail, Giant ([5]; 250 g ai/ha)
50: Plant response rating, Blackgrass ([3]; 250 g ai/ha) | Plant response rating, Lambsquarters ([7]; 125 g ai/ha) | Plant response rating, Pigweed ([11]; 62 g ai/ha)
90: Plant response rating, Galium ([1]; 250 g ai/ha) | Plant response rating, Barnyardgrass ([2]; 62 g ai/ha) | Plant response rating, Barnyardgrass ([2]; 125 g ai/ha)
75: Plant response rating, Waterhemp ([15]; 62 g ai/ha)
85: Plant response rating, Galium ([1]; 125 g ai/ha) | Plant response rating (scale of 0 to 100), Foxtail, Giant [5, 17] | Plant response rating, Ragweed ([12]; 250 g ai/ha) | Plant response rating, Waterhemp ([15]; 250 g ai/ha)
40: Plant response rating, Johnsongrass ([6]; 250 g ai/ha) | Plant response rating (scale of 0 to 100), Pigweed [11, 17] | Plant response rating, Ragweed ([12]; 62 g ai/ha) | Plant response rating, Ryegrass, Italian ([13]; 250 g ai/ha) | Plant response rating, Velvetleaf ([14]; 250 g ai/ha)
5: Plant response rating, Oilseed Rape ([10]; 125 g ai/ha) | Plant response rating, Ryegrass, Italian ([13]; 62 g ai/ha) | Plant response rating, Ryegrass, Italian ([13]; 125 g ai/ha)
0: Plant response rating (scale of 0 to 100), Blackgrass [3, 17] | Plant response rating, Blackgrass ([3]; 62 g ai/ha) | Plant response rating (scale of 0 to 100), Corn (corn (Zea mays); [17]) | Plant response rating, Corn (corn (Zea mays); 62 g ai/ha) | Plant response rating, Corn (corn (Zea mays); 125 g ai/ha) | Plant response rating, Corn (corn (Zea mays); 250 g ai/ha) | Plant response rating (scale of 0 to 100), Johnsongrass [6, 17] | Plant response rating, Johnsongrass ([6]; 62 g ai/ha) | Plant response rating, Johnsongrass ([6]; 125 g ai/ha) | Plant response rating (scale of 0 to 100), Morningglory [8, 17] | Plant response rating, Morningglory ([8]; 62 g ai/ha) | Plant response rating, Morningglory ([8]; 125 g ai/ha) | Plant response rating, Morningglory ([8]; 250 g ai/ha) | Plant response rating (scale of 0 to 100), Nutsedge, Yellow [9, 17] | Plant response rating, Nutsedge, Yellow ([9]; 62 g ai/ha) | Plant response rating, Nutsedge, Yellow ([9]; 125 g ai/ha) | Plant response rating, Nutsedge, Yellow ([9]; 250 g ai/ha) | Plant response rating (scale of 0 to 100), Oilseed Rape [10, 17] | Plant response rating, Oilseed Rape ([10]; 62 g ai/ha) | Plant response rating (scale of 0 to 100), Ragweed [12, 17] | Plant response rating (scale of 0 to 100), Ryegrass, Italian [13, 17] | Plant response rating (scale of 0 to 100), Soybean (soybean (Glycine max); [17]) | Plant response rating, Soybean (soybean (Glycine max); 62 g ai/ha) | Plant response rating, Soybean (soybean (Glycine max); 125 g ai/ha) | Plant response rating, Soybean (soybean (Glycine max); 250 g ai/ha) | Plant response rating (scale of 0 to 100), Velvetleaf [14, 17] | Plant response rating, Velvetleaf ([14]; 62 g ai/ha) | Plant response rating (scale of 0 to 100), Wheat [16, 17]
35: Plant response rating, Lambsquarters ([7]; 62 g ai/ha)
70: Plant response rating, Lambsquarters ([7]; 250 g ai/ha) | Plant response rating, Pigweed ([11]; 125 g ai/ha) | Plant response rating, Ragweed ([12]; 125 g ai/ha) | Plant response rating, Waterhemp ([15]; 125 g ai/ha)
98: Plant response rating (scale of 0 to 100), Galium [1, 17] | Plant response rating, Crabgrass, Large ([4]; 125 g ai/ha)
20: Plant response rating, Blackgrass ([3]; 125 g ai/ha) | Plant response rating, Wheat ([16]; 62 g ai/ha)
55: Plant response rating (scale of 0 to 100), Waterhemp [15, 17]
100: Plant response rating, Crabgrass, Large ([4]; 62 g ai/ha) | Plant response rating, Crabgrass, Large ([4]; 250 g ai/ha)
